Experimental data published in patent publication US20030032000A1, “Method for analyzing cellular events” (Signature BioScience Inc., priority 2001, published 2003).

Columns and labels:
CHOk1 cells = test: MCS cellular activity assay in un-transfected CHOk1 wild-type cells; settings: various concentrations of carbachol, signal integrated over 50 MHz to 1 GHz
calcium flux = test: MCS detection of calcium flux modifiers in wild-type and transfected cells; type: cell-based, Chinese Hampster
Description: Ability to detect other calcium flux modifies was tested using ionomycin (an ionophore).

Row | Compound | integrated MCS signal over time versus buffer (CHOk1 cells) | inhibition of ionomycin effect, MCS (calcium flux)
1 | C[N+](C)(C)CCOC(N)=O [carbachol] | essentially no change in signal over time | –
2 | C/C=C(/C)C(=O)O[C@H]1C(C)=C2[C@H]([C@@H]1OC(=O)CCCCCCC)[C@@](C)(OC(C)=O)C[C@H](OC(=O)CCC)[C@@]1(O)[C@H]2OC(=O)[C@@]1(C)O [thapsigargin] | – | inhibit ionomycin
